Legend:
Assay type in all cases: cell-based
BRD2 = target: T1, BRD2 (Homo sapiens, UniProt P25440); assay: Proteome-wide SILAC MS protein abundance in HEK293T cells: BRD2; conditions: KB02-JQ1 20 μM, 24 hours
T1 construct: endogenous in cells; host or cells: HEK293T
Protocol: HEK293T light and heavy SILAC cells were treated with DMSO and KB02-JQ1 (20 μM) or KB02-SLF (2 μM) for 24 hours, respectively. Light and heavy cells were collected and lysed in 1% NP-40 lysis buffer with complete protease inhibitor cocktail. Cells were vortexed and sonicated for 5 pulses (40%, 4). The supernatant was collected after centrifugation at 16,000 g for 10 min at 4° C. Protein concentration was determined by DC assay. 50 μg proteome from light and heavy samples were mixed, followed by methanol/chloroform precipitation. […] Next, the ratio of the peak areas under the light and heavy signals (signal-to-noise ratio>2.5) was calculated. […] In addition, peptides detected as ‘singletons,’ where only the heavy ion of a peptide pair was identified, but that cleared all other filtering parameters, were given a default assigned ratio of ‘20,’ which is defined as any measured ratio that is ≥20 and is the maximum ratio reported here.” The median SILAC ratios from quantified peptides were used as measures of protein abundance. The following quality filters were further applied to generate the plot: (1) proteins must have at least two quantified peptides; (2) proteins must be present in both replicates; (3) for each protein, the standard deviation of measured ratios of peptides must be <1.0.

BRD4 and DCAF16 = target: T2, BRD4 and DCAF16 (Homo sapiens, UniProt O60885+Q9NXF7); assay: Co-immunoprecipitation of BRD4-FLAG with HA-DCAF16 in HEK293T cells; conditions: 10 μM KB02-JQ1, 10 μM MG132, 2 hours
T2 construct: expressed in transfected cells; host or cells: HEK293T (pRK5 vectors)
Protocol: Cells were collected and lysed in 1% NP-40 lysis buffer (25 mM Tris-HCl pH 7.4, 150 mM NaCl, 10% glycerol, 1% Nonidet P-40) with complete protease inhibitor cocktail (Roche). Cells were vortexed and sonicated for 5 pulses (40%, 4). The supernatant was collected after centrifugation at 16,000 g for 10 min at 4° C. Protein concentration was determined by DC assay (Bio-Rad). Protein lysate was heated at 95° C. for 5 min in 1× Laemmli sample buffer. Proteins were resolved by 12% or 14% Novex Tris-Glycine Mini Gels (Invitrogen) and transferred to polyvinylidene fluoride (PVDF) membrane (0.2 Bio-Rad). The membrane was blocked with 5% BSA in TBST buffer (0.1% Tween 20, 20 mM Tris-HCl 7.6, 150 mM NaCl) at room temperature for 1 h. The antibody was diluted with fresh 5% BSA in TBST buffer (1:10000 dilution for FLAG, HA and β-Actin, 1:1000 dilution for others) and incubated with membrane (1 h room temperature for FLAG, HA and β-Actin, overnight 4° C. for others). Membrane was washed three times with TBST buffer and incubated with secondary antibody (1:5000 dilution in 5% BSA in TBST) at room temperature for 1 h. Membrane was washed three times with TBST buffer. The chemiluminescence signal in membrane was recorded after developing in ECL or ECL plus western blotting detection reagent using CL-XPosure film (Thermo Scientific). Relative band intensities were quantified using ImageJ. […]

HA-DCAF16 = target: T3, HA-DCAF16 (Homo sapiens, UniProt Q9NXF7); assay: Western blot of HA-DCAF16 in DCAF16−/− cells; conditions: KB02-SLF 1.5 μM, 8 hours
T3 construct: expressed in transfected cells; host or cells: HEK293T (A9); DCAF16-/- HEK293 clones (A20); pRK5 vector
T3 sequence (Q9NXF7 whole entry): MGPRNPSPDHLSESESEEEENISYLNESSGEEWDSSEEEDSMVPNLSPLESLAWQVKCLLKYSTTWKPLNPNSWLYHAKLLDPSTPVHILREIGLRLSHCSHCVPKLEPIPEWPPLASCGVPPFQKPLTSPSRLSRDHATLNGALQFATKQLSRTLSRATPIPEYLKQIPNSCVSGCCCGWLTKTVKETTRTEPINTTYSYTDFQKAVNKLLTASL
Protocol: Cells were collected and lysed in 1% NP-40 lysis buffer (25 mM Tris-HCl pH 7.4, 150 mM NaCl, 10% glycerol, 1% Nonidet P-40) with complete protease inhibitor cocktail (Roche). Cells were vortexed and sonicated for 5 pulses (40%, 4). The supernatant was collected after centrifugation at 16,000 g for 10 min at 4° C. Protein concentration was determined by DC assay (Bio-Rad). Protein lysate was heated at 95° C. for 5 min in 1× Laemmli sample buffer. Proteins were resolved by 12% or 14% Novex Tris-Glycine Mini Gels (Invitrogen) and transferred to polyvinylidene fluoride (PVDF) membrane (0.2 Bio-Rad). The membrane was blocked with 5% BSA in TBST buffer (0.1% Tween 20, 20 mM Tris-HCl 7.6, 150 mM NaCl) at room temperature for 1 h. The antibody was diluted with fresh 5% BSA in TBST buffer (1:10000 dilution for FLAG, HA and β-Actin, 1:1000 dilution for others) and incubated with membrane (1 h room temperature for FLAG, HA and β-Actin, overnight 4° C. for others). Membrane was washed three times with TBST buffer and incubated with secondary antibody (1:5000 dilution in 5% BSA in TBST) at room temperature for 1 h. Membrane was washed three times with TBST buffer. The chemiluminescence signal in membrane was recorded after developing in ECL or ECL plus western blotting detection reagent using CL-XPosure film (Thermo Scientific). Relative band intensities were quantified using ImageJ.

T1 sequence (P25440 whole entry): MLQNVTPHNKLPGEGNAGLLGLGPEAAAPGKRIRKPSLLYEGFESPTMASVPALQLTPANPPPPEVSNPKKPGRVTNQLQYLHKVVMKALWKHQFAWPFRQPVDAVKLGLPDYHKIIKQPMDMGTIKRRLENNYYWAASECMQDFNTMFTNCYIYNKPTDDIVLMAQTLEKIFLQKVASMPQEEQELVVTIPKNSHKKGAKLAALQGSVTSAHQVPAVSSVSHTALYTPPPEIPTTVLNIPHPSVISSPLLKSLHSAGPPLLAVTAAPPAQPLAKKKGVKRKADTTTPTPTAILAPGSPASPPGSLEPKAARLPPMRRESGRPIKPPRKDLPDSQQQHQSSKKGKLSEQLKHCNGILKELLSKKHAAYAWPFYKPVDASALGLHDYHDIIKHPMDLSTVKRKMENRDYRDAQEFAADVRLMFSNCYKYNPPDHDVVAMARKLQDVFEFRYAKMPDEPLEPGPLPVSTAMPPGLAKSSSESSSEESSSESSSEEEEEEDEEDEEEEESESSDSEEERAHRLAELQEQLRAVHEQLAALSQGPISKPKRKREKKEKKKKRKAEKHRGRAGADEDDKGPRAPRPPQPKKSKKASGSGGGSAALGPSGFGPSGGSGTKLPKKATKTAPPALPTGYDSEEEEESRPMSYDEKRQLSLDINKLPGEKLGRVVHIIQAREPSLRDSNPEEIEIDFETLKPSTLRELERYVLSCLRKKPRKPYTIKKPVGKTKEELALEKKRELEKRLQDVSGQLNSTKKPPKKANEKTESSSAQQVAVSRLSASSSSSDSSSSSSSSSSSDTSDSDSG

| BRD2 abundance (MS-based proteomics) (BRD2) | SMILES | co-immunoprecipitation of DCAF16 with BRD4 (BRD4 and DCAF16) | degradation of HA-DCAF16 (HA-DCAF16) |
| --- | --- | --- | --- |
| appeared to be stabilized | Cc1sc2c(c1C)C(c1ccc(Cl)cc1)=N[C@@H](CC(=O)NCCOCCOCCNC(=O)COc1ccc3c(c1)CCCN3C(=O)CCl)c1nnc(C)n1-2 [KB02-JQ1, (S)-2-((1-(2-chloroacetyl)-1,2,3,4-tetrahydroquinolin-6-yl)oxy)-N-(2-(2-(2-(2-(4-(4-chlorophenyl)-2,3,9-trimethyl-6H-thieno[3,2-f][1,2,4]triazolo[4,3-a][1,4]diazepin-6-yl)acetamido)ethoxy)ethoxy)ethyl)acetamide] | co-immunoprecipitated with BRD4 in a KB02-JQ1-dependent manner | – |
| – | CCC(C)(C)C(=O)C(=O)N1CCCC[C@H]1C(=O)O[C@H](CCc1ccc(OC)c(OC)c1)c1cccc(NC(=O)CCOCCOCCNC(=O)COc2ccc3c(c2)CCCN3C(=O)CCl)c1 [KB02-SLF, (R)-1-(3-(3-(2-(2-(2-((1-(2-chloroacetyl)-1,2,3,4-tetrahydroquinolin-6-yl)oxy)acetamido)ethoxy)ethoxy)propanamido)phenyl)-3-(3,4-dimethoxyphenyl)propyl (S)-1-(3,3-dimethyl-2-oxopentanoyl)piperidine-2-carboxylate] | – | degradation of HA-DCAF16 was not observed |

From patent US11691984B2, “Compounds and methods for DCAF-mediated protein degradation” (The Scripps Research Institute, priority 2018, dated 2023)
